The source of these data is patent US12509454B2, “Thiadiazolyl derivatives” (IDEAYA Biosciences, Inc., priority 2019, dated 2025).

Pol theta (1-899), sequence (O75417 1-899): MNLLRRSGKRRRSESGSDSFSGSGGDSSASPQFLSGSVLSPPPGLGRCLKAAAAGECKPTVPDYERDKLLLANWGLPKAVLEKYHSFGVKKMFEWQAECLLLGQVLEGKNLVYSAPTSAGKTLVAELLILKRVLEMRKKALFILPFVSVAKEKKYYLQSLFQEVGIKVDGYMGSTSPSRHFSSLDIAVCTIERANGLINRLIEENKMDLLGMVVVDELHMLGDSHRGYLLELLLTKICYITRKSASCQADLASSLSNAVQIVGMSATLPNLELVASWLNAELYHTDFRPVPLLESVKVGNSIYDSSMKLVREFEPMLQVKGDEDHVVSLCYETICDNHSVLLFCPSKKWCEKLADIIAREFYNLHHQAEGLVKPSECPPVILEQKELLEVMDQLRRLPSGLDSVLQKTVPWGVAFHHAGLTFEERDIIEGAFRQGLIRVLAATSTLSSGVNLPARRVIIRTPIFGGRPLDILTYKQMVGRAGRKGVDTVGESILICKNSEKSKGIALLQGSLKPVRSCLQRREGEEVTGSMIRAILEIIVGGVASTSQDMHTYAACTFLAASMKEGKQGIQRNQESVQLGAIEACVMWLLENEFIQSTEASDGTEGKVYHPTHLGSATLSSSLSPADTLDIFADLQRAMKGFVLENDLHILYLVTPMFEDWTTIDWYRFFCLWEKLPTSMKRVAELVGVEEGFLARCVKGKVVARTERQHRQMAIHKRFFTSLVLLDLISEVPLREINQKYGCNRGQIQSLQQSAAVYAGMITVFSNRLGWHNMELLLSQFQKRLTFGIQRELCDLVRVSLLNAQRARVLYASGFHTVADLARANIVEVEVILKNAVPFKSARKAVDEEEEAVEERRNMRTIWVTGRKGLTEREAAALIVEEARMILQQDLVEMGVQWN

This assay addresses Pol theta (1-899) (Homo sapiens (Human), UniProt O75417). Kind of assay: Pol theta ATPase activity, NADH oxidation-coupled enzymatic assay. It is filed as biochemical. Conditions: Pol theta (1-899) 10 nM, ATP, dT50 ssDNA, absorbance 340 nm, 10-point dilution series; read-out: ATPase NADH coupling:Standard Screening:hPolQ IC50. As to the method: The ability of the compounds of Formula (I) to inhibit ATPase activity of Pol theta (1-899) was determined using the assay described below.
Pol Theta ATPase activity was determined by measuring the rate of ATP turn over in a NADH oxidation-coupled enzymatic assay. 10-point dilution series of compounds were used in a 384 well format for the inhibition assays. Pol theta (1-899) (10 nM) in assay buffer (20 mM Tris HCl (pH 7.80), 80 mM KCl, 10 mM MgCl2, 1 mM DTT, 0.01% BSA, 0.01% Tween, 5% glycerol) was transferred to the test wells (20 μL), except the low control wells (20 μL of assay buffer was added to the low control wells). The plate was then incubated at room temperature for 15 min. An equal volume (20 μL) of 100 μM ATP, 300 nM dT50 (single-stranded DNA (ssDNA) containing 50 thymine bases), 300 μM NADH, 6 mM PEP, 10 U/mL lactate dehydrogenase and 20 U/mL pyruvate kinase in assay buffer was added to all the test wells. The plate was then centrifuged at 1000 rpm for 1 min. The reaction was monitored for 30 min by measuring absorbance (λ=340 nm) in a Tecan Spark multimode plate reader every minute. The high control (DMSO with enzyme) with low absorbance intensity represents no inhibition of ATPase reaction while the low control (DMSO with buffer) with high absorbance intensity represents full inhibition of ATPase activity. Slope of the reaction progress curves were used to calculate the rate of ATP hydrolysis. The rates were used to determine the percent inhibition using a four-parameter inhibition model to generate IC50, Hill slope and max inhibition.
With `COc1ccccc1-c1cc(C)ncc1C(=O)Nc1nnc(OCc2cc(F)ccn2)s1` [Example 199, N-(5-((4-fluoropyridin-2-yl)methoxy)-1,3,4-thiadiazol-2-yl)-4-(2-methoxyphenyl)-6-methylnicotinamide], the IC50 was in the range of 200 to 500 nM.

As to `COc1ccccc1-c1cnccc1C(=O)Nc1nnc(OCc2ccc(C3CC3)nc2)s1` [Example 101, N-[5-[(6-cyclopropylpyridin-3-yl)methoxy]-1,3,4-thiadiazol-2-yl]-3-(2-methoxyphenyl)pyridine-4-carboxamide], the IC50 was at most 200 nM.

With `N#Cc1cnc(N2CCOCC2)c(C(=O)Nc2nnc(OCc3ccc(Cl)cn3)s2)c1` [Example 33, N-(5-((5-chloropyridin-2-yl)methoxy)-1,3,4-thiadiazol-2-yl)-5-cyano-2-morpholinonicotinamide], the IC50 was in the range of 500 to 1000 nM.

Regarding `COc1ccccc1-c1cnc(CC#N)cc1C(=O)Nc1nnc(OCc2ccc(Cl)cc2)s1` [Example 137, N-[5-[(4-chlorophenyl)methoxy]-1,3,4-thiadiazol-2-yl]-2-(cyanomethyl)-5-(2-methoxyphenyl)pyridine-4-carboxamide], the IC50 is at most 200 nM.

Consider `O=C(Nc1nnc(OCc2ccc(Cl)cn2)s1)c1cnnn1-c1ccccc1` [Example 25, N-(5-((5-chloropyridin-2-yl)methoxy)-1,3,4-thiadiazol-2-yl)-1-phenyl-1H-1,2,3-triazole-5-carboxamide], for which the 50% inhibitory concentration (IC50) fell in the range of 1000 to 10000 nM.

Consider `COc1ccc(C#N)cc1-c1cc(C)ncc1C(=O)Nc1nnc(OCc2ccc(Cl)cc2)s1` [Example 116, N-[5-[(4-chlorophenyl)methoxy]-1,3,4-thiadiazol-2-yl]-4-(5-cyano-2-methoxyphenyl)-6-methylpyridine-3-carboxamide], for which the IC50 was at most 200 nM.

With `COc1ccccc1-c1cnc(C)cc1C(=O)Nc1nnc(OCc2ccc(Cl)cn2)s1` [Example 191, N-[5-[(5-chloropyridin-2-yl)methoxy]-1,3,4-thiadiazol-2-yl]-5-(2-methoxyphenyl)-2-methylpyridine-4-carboxamide], the IC50 was 200 to 500 nM.

`COc1ccc(-n2cncc2C(=O)Nc2nnc(OCc3ccc(Cl)cc3)s2)c(OC)c1` [Example 31, N-(5-((4-chlorobenzyl)oxy)-1,3,4-thiadiazol-2-yl)-1-(2,4-dimethoxyphenyl)-1H-imidazole-5-carboxamide]: the 50% inhibitory concentration (IC50) is at most 200 nM.

Regarding `Cc1cc(-c2ccccc2CO)c(C(=O)Nc2nnc(OCc3ccc(Cl)cn3)s2)cn1` [Example 203, N-[5-[(5-chloropyridin-2-yl)methoxy]-1,3,4-thiadiazol-2-yl]-4-[2-(hydroxymethyl)phenyl]-6-methylpyridine-3-carboxamide], the IC50 is at most 200 nM.

With `NC(=O)c1cc(N2CCOCC2)c(C(=O)Nc2nnc(OCc3ccc(Cl)cc3)s2)cn1` [Example 48, N^5-(5-((4-chlorobenzyl)oxy)-1,3,4-thiadiazol-2-yl)-4-morpholinopyridine-2,5-dicarboxamide], the IC50 lay in the range of 200 to 500 nM.

In the case of `CNC(=O)c1cc(N2CCOCC2)c(C(=O)Nc2nnc(OCc3ccc(Cl)cc3)s2)cn1` [Example 64, N^5-(5-((4-chlorobenzyl)oxy)-1,3,4-thiadiazol-2-yl)-N2-methyl-4-morpholinopyridine-2,5-dicarboxamide], the IC50 is 500 to 1000 nM.

Turning to `O=C(O)c1cc(N2CCOCC2)c(C(=O)Nc2nnc(OCc3ccc(Cl)cc3)s2)cn1` [Example 84, 5-((5-((4-chlorobenzyl)oxy)-1,3,4-thiadiazol-2-yl)carbamoyl)-4-morpholinopicolinic acid], the IC50 was 1000 to 10000 nM.

Take `COc1ccccc1-c1cc(C)ncc1C(=O)Nc1nnc(O[C@@H](C)c2ccc(Cl)cc2)s1` [Example 202, N-[5-[(1S)-1-(4-chlorophenyl)ethoxy]-1,3,4-thiadiazol-2-yl]-4-(2-methoxyphenyl)-6-methylpyridine-3-carboxamide]: the IC50 is at most 200 nM.

On to `COc1ccccc1-c1cc(C)ncc1C(=O)Nc1nnc(OCc2ncccc2F)s1` [Example 210, N-[5-[(3-fluoropyridin-2-yl)methoxy]-1,3,4-thiadiazol-2-yl]-4-(2-methoxyphenyl)-6-methylpyridine-3-carboxamide], for which the IC50 is at most 200 nM.

Regarding `CC1CNC(=O)CN1c1ncccc1C(=O)Nc1nnc(OCc2ccc(Cl)cc2)s1` (racemic) [Example 60, (R) N-(5-((4-chlorobenzyl)oxy)-1,3,4-thiadiazol-2-yl)-2-(2-methyl-5-oxopiperazin-1-yl)nicotinamide and (S) N-(5-((4-chlorobenzyl)oxy)-1,3,4-thiadiazol-2-yl)-2-(2-methyl-5-oxopiperazin-1-yl)nicotinamide], the IC50 was at most 200 nM.

In the case of `O=C(Nc1nnc(OCc2ccc(Cl)cn2)s1)c1ccnn1-c1ccccc1` [Example 24, N-(5-((5-chloropyridin-2-yl)methoxy)-1,3,4-thiadiazol-2-yl)-1-phenyl-1H-pyrazole-5-carboxamide], the IC50 lay within 1000 to 10000 nM.

For `O=C(Nc1nnc(OCc2ccc(Br)cn2)s1)c1cccnc1N1CCOCC1` [Example 15], the IC50 lay in the range of 1000 to 10000 nM.

In the case of `N#Cc1cc(N2CCOC3(CC3)C2)c(C(=O)Nc2nnc(OCc3ccc(Cl)cc3)s2)cn1` [Example 177, N-[5-[(4-chlorophenyl)methoxy]-1,3,4-thiadiazol-2-yl]-6-cyano-4-[4-oxa-7-azaspiro[2.5]octan-7-yl]pyridine-3-carboxamide], the IC50 is at most 200 nM.

Consider `COc1cccc(-n2cncc2C(=O)Nc2nnc(OCc3ccc(Cl)cc3)s2)c1` [Example 49, N-(5-((4-chlorobenzyl)oxy)-1,3,4-thiadiazol-2-yl)-1-(3-methoxyphenyl)-1H-imidazole-5-carboxamide], for which the IC50 lay in the range of 500 to 1000 nM.

For the molecule `COc1cccc(F)c1-c1cc(C#N)ncc1C(=O)Nc1nnc(OCc2ccc(Cl)cn2)s1` [Example 186, N-(5-((5-chloropyridin-2-yl)methoxy)-1,3,4-thiadiazol-2-yl)-6-cyano-4-(2-fluoro-6-methoxyphenyl)nicotinamide], the concentration for half-maximal inhibition (IC50) was at most 200 nM.

In the case of `O=C(Nc1nnc(OCc2ccc(Cl)cc2)s1)c1ccncc1-c1cccc2[nH]ncc12` [Example 119, N-(5-((4-chlorobenzyl)oxy)-1,3,4-thiadiazol-2-yl)-3-(1H-indazol-4-yl)isonicotinamide], the IC50 was at most 200 nM.

As to `COc1cccc(F)c1-c1cc(CO)ncc1C(=O)Nc1nnc(OCc2ccc(Cl)cn2)s1` [Example 206, N-[5-[(5-chloropyridin-2-yl)methoxy]-1,3,4-thiadiazol-2-yl]-4-(2-fluoro-6-methoxyphenyl)-6-(hydroxymethyl)pyridine-3-carboxamide], the IC50 was at most 200 nM.

As for `C[C@H]1COC[C@H](C)N1c1cnccc1C(=O)Nc1nnc(OCc2ccc(Cl)cn2)s1` [Example 187, N-(5-((5-chloropyridin-2-yl)methoxy)-1,3,4-thiadiazol-2-yl)-3-((3S,5S)-3,5-dimethylmorpholino)isonicotinamide], the IC50 is at most 200 nM.

Turning to `COc1ccccc1-c1ncccc1C(=O)Nc1nnc(OCc2ccc(Cl)cc2)s1` [Example 67, N-(5-((4-chlorobenzyl)oxy)-1,3,4-thiadiazol-2-yl)-2-(2-methoxyphenyl)nicotinamide], the IC50 lay within 1000 to 10000 nM.

Turning to `COc1ccc(C#N)cc1-c1cc(C)ncc1C(=O)Nc1nnc(OCc2ccc(Cl)cn2)s1` [Example 117, N-[5-[(5-chloropyridin-2-yl)methoxy]-1,3,4-thiadiazol-2-yl]-4-(5-cyano-2-methoxyphenyl)-6-methylpyridine-3-carboxamide], the IC50 is at most 200 nM.

Regarding `O=C(Nc1nnc(OCc2ccc(-c3ncco3)cc2)s1)c1cccnc1N1CCOCC1` [Example 65, 2-morpholino-N-(5-((4-(oxazol-2-yl)benzyl)oxy)-1,3,4-thiadiazol-2-yl)nicotinamide], the IC50 lay within 1000 to 10000 nM.

With `COc1cccc(F)c1-c1cc(C)ncc1C(=O)Nc1nnc(OCc2ccc(Cl)cc2)s1` [Example 183, N-(5-((4-chlorobenzyl)oxy)-1,3,4-thiadiazol-2-yl)-4-(2-fluoro-6-methoxyphenyl)-6-methylnicotinamide], the IC50 was at most 200 nM.

As to `CC1C(=O)NCCN1c1ncccc1C(=O)Nc1nnc(OCc2ccc(Cl)cc2)s1` (racemic) [Example 52, (R) N-(5-((4-chlorobenzyl)oxy)-1,3,4-thiadiazol-2-yl)-2-(2-methyl-3-oxopiperazin-1-yl)nicotinamide and (S) N-(5-((4-chlorobenzyl)oxy)-1,3,4-thiadiazol-2-yl)-2-(2-methyl-3-oxopiperazin-1-yl)nicotinamide], the IC50 was in the range of 200 to 500 nM.

For `COc1ccccc1-c1ccncc1C(=O)Nc1nnc(OCc2ccc(Br)cc2)s1` [Example 153, N-[5-[(4-bromophenyl)methoxy]-1,3,4-thiadiazol-2-yl]-4-(2-methoxyphenyl)pyridine-3-carboxamide], the IC50 was at most 200 nM.

With `N#Cc1ccc(C(=O)Nc2nnc(OCc3ccc(Cl)cc3)s2)c(N2CCNC(=O)C2)n1` [Example 76, N-(5-((4-chlorobenzyl)oxy)-1,3,4-thiadiazol-2-yl)-6-cyano-2-(3-oxopiperazin-1-yl)nicotinamide], the IC50 is at most 200 nM.
